# Assay results as given in PubChem BioAssay AID1963833 (Molecular Pharmacology Branch, DTP, NCI, 2024).
# Tested on: 883617-216-R-J1-PDC complex spheroid viability
# Experiment: Anticancer human tumor 883617-216-R-J1-PDC patient-derived bladder carcinoma cell line growth inhibition [POLQ]
# Settings: for IC50: curve of first compound; for viability, T/C: stronger effect = lower value
# How it was run: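 Patient-derived tumour cells were co-cultured with HUVEC and mesenchymal stem cells as multicellular spheroids at 37 °C. They were treated with POLQ inhibitors (novobiocin, ART-558, RP6685) alone or combined with other agents. Top concentrations were at or near clinical Cmax (otherwise 10 microM; SN-38 at 1 microM), decreasing in half-log steps.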
# [1] = second compound 0.0316 µM, first compound 0.0316 µM
# [2] = second compound 0.0316 µM, first compound 0.1 µM
# [3] = second compound 0.0316 µM, first compound 0.316 µM
# [4] = second compound 0.0316 µM, first compound 1 µM
# [5] = second compound 0.1 µM, first compound 0.0316 µM
# [6] = second compound 0.1 µM, first compound 0.1 µM
# [7] = second compound 0.1 µM, first compound 0.316 µM
# [8] = second compound 0.1 µM, first compound 1 µM
# [9] = second compound 0.316 µM, first compound 0.0316 µM
# [10] = second compound 0.316 µM, first compound 0.1 µM
# [11] = second compound 0.316 µM, first compound 0.316 µM
# [12] = second compound 0.316 µM, first compound 1 µM
# [13] = second compound 1 µM, first compound 0.0316 µM
# [14] = second compound 1 µM, first compound 0.1 µM
# [15] = second compound 1 µM, first compound 0.316 µM
# [16] = second compound 1 µM, first compound 1 µM
# [17] = second compound 3.16 µM, first compound 0.0316 µM
# [18] = second compound 3.16 µM, first compound 0.1 µM
# [19] = second compound 3.16 µM, first compound 0.316 µM
# [20] = second compound 3.16 µM, first compound 1 µM
# [21] = second compound 10 µM, first compound 0.0316 µM
# [22] = second compound 10 µM, first compound 0.1 µM
# [23] = second compound 10 µM, first compound 0.316 µM
# [24] = second compound 10 µM, first compound 1 µM
# [25] = second compound 0.0316 µM, first compound 3.16 µM
# [26] = second compound 0.0316 µM, first compound 10 µM
# [27] = second compound 0.1 µM, first compound 3.16 µM
# [28] = second compound 0.1 µM, first compound 10 µM
# [29] = second compound 0.316 µM, first compound 3.16 µM
# [30] = second compound 0.316 µM, first compound 10 µM
# [31] = second compound 1 µM, first compound 3.16 µM
# [32] = second compound 1 µM, first compound 10 µM
# [33] = second compound 3.16 µM, first compound 3.16 µM
# [34] = second compound 3.16 µM, first compound 10 µM
# [35] = second compound 10 µM, first compound 3.16 µM
# [36] = second compound 10 µM, first compound 10 µM
# 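Note: spheroids exposed to compounds for seven days before readout.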
# 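Throughout, for viability, T/C: 100% = DMSO vehicle control viability.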
structure (smiles),measurement,setting,value
CCc1c2c(nc3ccc(O)cc13)-c1cc3c(c(=O)n1C2)COC(=O)[C@]3(O)CC + Nc1ccc(C#CCN(C(=O)Cc2ncc(C(F)(F)F)cc2C(F)(F)F)c2ccc(F)cc2)nn1,IC50,second compound 0.0316 µM,107 nM
same,IC50,second compound 0.1 µM,169 nM
same,IC50,second compound 0.316 µM,177 nM
same,IC50,second compound 1 µM,90.8 nM
same,IC50,second compound 3.16 µM,168 nM
same,IC50,second compound 10 µM,278 nM
same,"viability, T/C","second compound 0.0316 µM, first compound 0.00316 µM",77.5%
same,"viability, T/C","second compound 0.0316 µM, first compound 0.01 µM",71%
same,"viability, T/C",[1],59.1%
same,"viability, T/C",[2],51.3%
same,"viability, T/C",[3],40%
same,"viability, T/C",[4],27.1%
same,"viability, T/C","second compound 0.1 µM, first compound 0.00316 µM",92.6%
same,"viability, T/C","second compound 0.1 µM, first compound 0.01 µM",68.3%
same,"viability, T/C",[5],70.8%
same,"viability, T/C",[6],62.3%
same,"viability, T/C",[7],39.5%
same,"viability, T/C",[8],27.9%
same,"viability, T/C","second compound 0.316 µM, first compound 0.00316 µM",77.5%
same,"viability, T/C","second compound 0.316 µM, first compound 0.01 µM",76%
same,"viability, T/C",[9],72.6%
same,"viability, T/C",[10],51%
same,"viability, T/C",[11],46.6%
same,"viability, T/C",[12],26.8%
same,"viability, T/C","second compound 1 µM, first compound 0.00316 µM",86.4%
same,"viability, T/C","second compound 1 µM, first compound 0.01 µM",82.6%
same,"viability, T/C",[13],59.3%
same,"viability, T/C",[14],50.1%
same,"viability, T/C",[15],40.1%
same,"viability, T/C",[16],31.4%
same,"viability, T/C","second compound 3.16 µM, first compound 0.00316 µM",94.8%
same,"viability, T/C","second compound 3.16 µM, first compound 0.01 µM",84.2%
same,"viability, T/C",[17],71.1%
same,"viability, T/C",[18],52.3%
same,"viability, T/C",[19],45.9%
same,"viability, T/C",[20],27.4%
same,"viability, T/C","second compound 10 µM, first compound 0.00316 µM",93.6%
same,"viability, T/C","second compound 10 µM, first compound 0.01 µM",89.1%
same,"viability, T/C",[21],78.9%
same,"viability, T/C",[22],59.8%
same,"viability, T/C",[23],51.4%
same,"viability, T/C",[24],34.1%
Nc1ccn(C2OC(CO)C(O)C2(F)F)c(=O)n1 (stereo unspecified) + Nc1ccc(C#CCN(C(=O)Cc2ncc(C(F)(F)F)cc2C(F)(F)F)c2ccc(F)cc2)nn1,IC50,second compound 0.0316 µM,< 31.6 nM
same,IC50,second compound 0.1 µM,< 31.6 nM
same,IC50,second compound 0.316 µM,< 31.6 nM
same,IC50,second compound 1 µM,< 31.6 nM
same,IC50,second compound 3.16 µM,< 31.6 nM
same,IC50,second compound 10 µM,< 31.6 nM
same,"viability, T/C",[1],33.7%
same,"viability, T/C",[2],33.4%
same,"viability, T/C",[3],39.8%
same,"viability, T/C",[4],33.9%
same,"viability, T/C",[25],56%
same,"viability, T/C",[26],37.3%
same,"viability, T/C",[5],34.5%
same,"viability, T/C",[6],35.1%
same,"viability, T/C",[7],38.2%
same,"viability, T/C",[8],32.4%
same,"viability, T/C",[27],37.5%
same,"viability, T/C",[28],47.1%
same,"viability, T/C",[9],32.5%
same,"viability, T/C",[10],38.7%
same,"viability, T/C",[11],39.3%
same,"viability, T/C",[12],35.9%
same,"viability, T/C",[29],35.1%
same,"viability, T/C",[30],34.3%
same,"viability, T/C",[13],43.1%
same,"viability, T/C",[14],39.9%
same,"viability, T/C",[15],45.2%
same,"viability, T/C",[16],39.8%
same,"viability, T/C",[31],43.3%
same,"viability, T/C",[32],37.6%
same,"viability, T/C",[17],44.7%
same,"viability, T/C",[18],34.4%
same,"viability, T/C",[19],35.4%
same,"viability, T/C",[20],60.7%
same,"viability, T/C",[33],46.2%
same,"viability, T/C",[34],35.6%
same,"viability, T/C",[21],62.4%
same,"viability, T/C",[22],28.1%
same,"viability, T/C",[23],34.5%
same,"viability, T/C",[24],47.7%
same,"viability, T/C",[35],50.4%
same,"viability, T/C",[36],37.6%
O=C(c1cc(Cc2n[nH]c(=O)c3ccccc23)ccc1F)N1CCN(C(=O)C2CC2)CC1 + Nc1ccc(C#CCN(C(=O)Cc2ncc(C(F)(F)F)cc2C(F)(F)F)c2ccc(F)cc2)nn1,IC50,second compound 0.0316 µM,> 10000 nM
same,IC50,second compound 0.1 µM,> 10000 nM
same,IC50,second compound 0.316 µM,> 10000 nM
same,IC50,second compound 1 µM,> 10000 nM
same,IC50,second compound 3.16 µM,> 10000 nM
same,IC50,second compound 10 µM,> 10000 nM
same,"viability, T/C",[1],90%
same,"viability, T/C",[2],105%
same,"viability, T/C",[3],83.3%
same,"viability, T/C",[4],89.8%
same,"viability, T/C",[25],90.3%
same,"viability, T/C",[26],67.8%
same,"viability, T/C",[5],92.8%
same,"viability, T/C",[6],109%
same,"viability, T/C",[7],92.7%
same,"viability, T/C",[8],97.5%
same,"viability, T/C",[27],95.4%
same,"viability, T/C",[28],86.4%
same,"viability, T/C",[9],97.9%
same,"viability, T/C",[10],109%
same,"viability, T/C",[11],100%
same,"viability, T/C",[12],89.1%
same,"viability, T/C",[29],75.7%
same,"viability, T/C",[30],87.9%
same,"viability, T/C",[13],100%
same,"viability, T/C",[14],86.8%
same,"viability, T/C",[15],99.3%
same,"viability, T/C",[16],104%
same,"viability, T/C",[31],84.8%
same,"viability, T/C",[32],95.3%
same,"viability, T/C",[17],90%
same,"viability, T/C",[18],99.5%
same,"viability, T/C",[19],92.2%
same,"viability, T/C",[20],91.3%
same,"viability, T/C",[33],81.2%
same,"viability, T/C",[34],73%
same,"viability, T/C",[21],97%
same,"viability, T/C",[22],103%
same,"viability, T/C",[23],100%
same,"viability, T/C",[24],93.1%
same,"viability, T/C",[35],94.2%
same,"viability, T/C",[36],73%
